Experimental data reported in patent US7846943B2, “Azolopyridin-2-one derivatives as lipase and phospholipase inhibitors” (Sanofi-Aventis, priority 2005, dated 2010).

Each compound was assayed against T1, endothelial lipase (EL) (Homo sapiens, UniProt Q9Y5X9) (assay: Further EL inhibition assay). Conditions: Bodipy-labelled phospholipid substrate, 37° C., 90 minutes, HPTLC fluorescence readout; EL from conditioned medium of recombinant cell lines (CHO, HEK293).
T1 construct: made in house; host or cells: recombinant cell lines (CHO, HEK293); concentrated conditioned medium used as enzyme solution
T1 sequence (Q9Y5X9 21-500): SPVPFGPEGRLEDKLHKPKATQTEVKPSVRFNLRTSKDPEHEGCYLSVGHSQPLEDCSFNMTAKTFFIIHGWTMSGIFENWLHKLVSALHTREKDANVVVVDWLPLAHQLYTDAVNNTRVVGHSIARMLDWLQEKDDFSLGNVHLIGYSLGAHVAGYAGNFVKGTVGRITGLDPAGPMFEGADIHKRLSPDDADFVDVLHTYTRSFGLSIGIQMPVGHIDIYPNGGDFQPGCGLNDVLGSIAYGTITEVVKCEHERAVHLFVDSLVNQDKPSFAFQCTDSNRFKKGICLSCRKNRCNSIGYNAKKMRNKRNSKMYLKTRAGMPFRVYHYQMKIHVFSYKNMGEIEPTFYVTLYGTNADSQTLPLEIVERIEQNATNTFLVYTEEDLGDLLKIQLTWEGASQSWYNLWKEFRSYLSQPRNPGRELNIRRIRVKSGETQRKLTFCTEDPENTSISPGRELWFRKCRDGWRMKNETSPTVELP
Format: biochemical
Text: EL is released as secretory protein in high concentration into cell culture medium (conditioned medium) by recombinant cell lines (CHO, HEK293). This is employed as enzyme solution after concentration.
The enzymatic activity is reduced as a function of the inhibitor concentration used, and the inhibitor concentration at which a half-maximum enzymatic activity is observed is called IC50.
The phospholipase-specific substrate 1,2-bis(4,4-difluoro-5,7-dimethyl-4-bora-3a,4a-diaza-s-indacene-3-undecanoyl)-sn-glycero-3-phosphocholine, (manufacturer Molecular Probes) is used to characterize the enzymatic activity of endothelial lipase and the effect of inhibitors. Hydrolysis of the A1 ester linkage of this phospholipid by the enzyme liberates the fluorescent dye Bodipy which can be detected after separation by thin-layer chromatography on an HPTLC plate (silica gel 60, Merck) or directly in the reaction vessel by measuring the fluorescence. The substrate solution is prepared by dissolving 100 μg of 1,2-bis(4,4-difluoro-5,7-dimethyl-4-bora-3a,4a-diaza-s-indacene-3-undecanoyl)-sn-glycero-3-phospho-choline (manufacturer Molecular Probes) in 100 μl of DMSO and taking up in 2.4 mg of tripalmitin (Sigma) in 393 μl of chloroform which comprises 20 mg/ml DOP-choline (1,2-dioleoyl-sn-glycero-3-phosphocholine). 39.3 μl of this lipid mixture are transferred into a fresh reaction vessel, and the solvent is evaporated off. The lipid mixture is dissolved in 4 ml of 200 mM TRIS-HCl, 150 mM sodium chloride, pH=7.4, by sonication twice. The subsequent enzymic reaction takes place at 37° C. for 90 minutes. For this purpose, 20 μl of the substrate solution are incubated with 2 μl of inhibitor of appropriate concentration (dissolved in 10% DMSO, using 10% strength DMSO solution for control) and 2 μl of enzyme solution (conditioned medium). The 4 μl of the assay mixture are loaded onto an HPTLC plate (silica gel 60, Merck), and the liberated fluorescent dye is separated for detection with an eluent (diethyl ether:petroleum benzine:acetic acid [78:22:1]). After evaporation of the eluent, the plate is read in a fluorescence scanner. An increased liberation of the fluorescent dye in the uninhibited reaction is to be observed as a measure of the enzymic activity.

SMILES	IC50
CCCCCCCCCCCCNC(=O)n1c(=O)oc2cccnc21 [Example 16, 2-Oxo-oxazolo[4,5-b]pyridin-3-dodecylcarboxamide]	180 nM
CCCCCCCCNC(=O)n1c(=O)oc2cccnc21 [Example 19, 2-Oxo-oxazolo[4,5-b]pyridine-3-octylcarboxamide]	83 nM
CCCCCCCCCNC(=O)n1c(=O)oc2cccnc21 [Example 20, 2-Oxo-oxazolo[4,5-b]pyridine-3-nonylcarboxamide]	90 nM
CCCCCCNC(=O)n1c(=O)oc2cccnc21 [Example 3, 2-Oxo-oxazolo[4,5-b]pyridine-3-hexylcarboxamide]	69 nM
O=C(NCC1CCCCC1)n1c(=O)oc2cccnc21 [Example 18, 2-Oxo-oxazolo[4,5-b]pyridine-3-cyclohexylmethylcarboxamide]	480 nM
CCCCCCCNC(=O)n1c(=O)oc2cccnc21 [Example 9, 2-Oxo-oxazolo[4,5-b]pyridine-3-heptylcarboxamide]	11 nM
CCCCNC(=O)n1c(=O)oc2cccnc21 [Example 11, 2-Oxo-oxazolo[4,5-b]pyridine-3-butylcarboxamide]	354 nM

Second part, the compound after the results:

IC50	SMILES
10 nM	Cc1ccc(CNC(=O)n2c(=O)oc3cccnc32)cc1C [Example 5, 2-Oxo-oxazolo[4,5-b]pyridine-3-(3,4-dimethylbenzyl)carboxamide]
0.5 nM	O=C(NC1CCCc2ccccc21)n1c(=O)oc2cccnc21 (stereo not drawn) [Example 13, 2-Oxo-oxazolo[4,5-b]pyridin-3-(1,2,3,4-tetrahydronaphthalen-1-yl)carboxamide]
390 nM	Cc1cccc(CNC(=O)n2c(=O)oc3cccnc32)c1 [Example 4, 2-Oxo-oxazolo[4,5-b]pyridine-3-(3-methylbenzyl)carboxamide]
61 nM	Cc1ccc2oc(=O)n(C(=O)NCc3ccccc3C)c2n1 [Example 17, 5-Methyl-2-oxo-oxazolo[4,5-b]pyridine-3-(2-methylbenzyl)carboxamide]
10 nM	Cc1ccccc1CNC(=O)n1c(=O)oc2cc(Br)cnc21 [Example 2, 6-Bromo-2-oxo-oxazolo[4,5-b]pyridine-3-(2-methylbenzyl)carboxamide]
50 nM	Cc1ccccc1CNC(=O)n1c(=O)oc2cccnc21 [Example 1, 2-Oxo-oxazolo[4,5-b]pyridin-3-(2-methylbenzyl)carboxamide]
230 nM	O=C(N[C@H]1CCc2ccccc21)n1c(=O)oc2cccnc21 [Example 15]
180 nM	O=C(N[C@@H]1CCc2ccccc21)n1c(=O)oc2cccnc21 [Example 14]
